# Target: T1, Kir3.1/Kir3.4 (Rattus norvegicus, UniProt P48548+P63251)
# T1 sequence (P63251 whole entry): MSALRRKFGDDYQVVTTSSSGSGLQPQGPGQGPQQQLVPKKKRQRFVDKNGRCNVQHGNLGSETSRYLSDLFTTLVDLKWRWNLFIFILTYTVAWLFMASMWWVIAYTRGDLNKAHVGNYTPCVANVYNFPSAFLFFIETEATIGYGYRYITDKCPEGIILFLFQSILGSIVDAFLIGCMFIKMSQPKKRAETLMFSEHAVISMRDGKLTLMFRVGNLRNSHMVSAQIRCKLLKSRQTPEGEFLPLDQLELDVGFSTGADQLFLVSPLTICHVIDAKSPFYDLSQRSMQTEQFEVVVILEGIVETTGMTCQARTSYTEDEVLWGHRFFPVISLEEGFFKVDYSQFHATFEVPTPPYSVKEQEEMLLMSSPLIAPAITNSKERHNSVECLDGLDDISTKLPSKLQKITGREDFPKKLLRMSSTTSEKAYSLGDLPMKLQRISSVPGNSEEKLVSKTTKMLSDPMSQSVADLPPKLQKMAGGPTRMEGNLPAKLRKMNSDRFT
# T1 sequence (P48548 whole entry): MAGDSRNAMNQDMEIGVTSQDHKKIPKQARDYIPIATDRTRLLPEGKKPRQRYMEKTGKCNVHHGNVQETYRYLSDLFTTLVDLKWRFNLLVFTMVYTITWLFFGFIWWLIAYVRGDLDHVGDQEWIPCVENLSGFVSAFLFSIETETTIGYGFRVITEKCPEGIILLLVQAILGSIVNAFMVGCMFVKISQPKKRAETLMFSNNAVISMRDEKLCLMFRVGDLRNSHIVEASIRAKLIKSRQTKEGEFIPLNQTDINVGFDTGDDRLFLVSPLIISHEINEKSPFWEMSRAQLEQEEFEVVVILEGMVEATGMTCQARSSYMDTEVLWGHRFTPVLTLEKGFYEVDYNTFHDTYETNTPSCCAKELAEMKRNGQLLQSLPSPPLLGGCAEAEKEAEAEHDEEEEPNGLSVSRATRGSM
# Assay: Inhibition of rat Kir3.1/Kir3.4 expressed in HEK293 cells assessed as reduction in depolarizing voltage step-induced recombinant G-protein activated inward rectifier current by whole cell patch clamp assay
# Assay type: cell-based
row,Compound,IC50
1,CN(C)CCOCC1CCN(c2ncnc3scc(-c4ccccc4)c23)CC1,< 0.5 µM
2,CN1CCCCC1CCOCC1CCN(c2ncnc3scc(-c4ccccc4)c23)CC1 (configuration not stated),< 0.5 µM
3,COc1ncccc1-c1csc2ncnc(N3CCC(COCCN4CCCC4)CC3)c12,< 0.5 µM
4,Cc1sc2ncnc(N3CCC(COCCC4CCCN4C)CC3)c2c1C (configuration not stated),< 0.5 µM
5,CC(=O)NC1CCN(CCOCC2CCN(c3ncnc4scc(-c5ccccc5)c34)CC2)C1 (configuration not stated),< 0.5 µM
6,CN1CCCC1CCOCC1CCN(c2ncnc3scc(-c4cccc(F)c4)c23)CC1 (configuration not stated),< 0.5 µM
7,NC(=O)[C@H]1CCCN1CCOCC1C2CN(c3ncnc4scc(-c5ccccc5)c34)CC12 (some centres not stated),< 0.5 µM
8,CN1CCC(OCC2CCN(c3ncnc4scc(-c5ccccc5)c34)CC2)CC1,< 0.5 µM
9,NC(=O)C1CCCN1CCOCC1CCN(c2ncnc3scc(-c4ccccc4)c23)CC1 (configuration not stated),< 0.5 µM
10,Fc1cccc(-c2csc3ncnc(N4CCC(COCCN5CCCC5)CC4)c23)c1,< 0.5 µM
11,CCc1c(C)sc2ncnc(N3CCC(COCCN4CCCC4)CC3)c12,< 0.5 µM
12,F[C@H]1CCN(CCOCC2C3CN(c4ncnc5scc(-c6ccccc6)c45)CC23)C1 (some centres not stated),< 0.5 µM
13,FC1(F)CCN(CCOCC2CCN(c3ncnc4scc(-c5ccccc5)c34)CC2)C1,< 0.5 µM
14,CCc1c(C)sc2ncnc(N3CCC(COCCC4CCCCN4C)CC3)c12 (configuration not stated),< 0.5 µM
15,CN1CCCC1CCOCC1C2CN(c3ncnc4scc(-c5ccccc5)c34)CC12 (configuration not stated),< 0.5 µM
16,CC(C)c1cc2c(N3CCC(COCCN4CCOCC4)CC3)ncnc2s1,≤ 3 µM
17,CN1CCCC1CCOCC1CCN(c2ncnc3scc(-c4ccccc4)c23)CC1 (configuration not stated),< 0.5 µM
18,Fc1ccc(-c2csc3ncnc(N4CCC(COCCN5CCCC5)CC4)c23)cc1,< 0.5 µM

# Results, then the compound that gave them:
row,IC50,Compound
1,< 0.5 µM,NC(=O)C1CCN(CCOCC2CCN(c3ncnc4scc(-c5ccccc5)c34)CC2)C1 (configuration not stated)
2,< 0.5 µM,CN1CCC(OCC2CCN(c3ncnc4scc(-c5ccccc5)c34)CC2)C1 (configuration not stated)
3,< 0.5 µM,c1ccc(-c2csc3ncnc(N4CC5C(COCCN6CCCC6)C5C4)c23)cc1 (configuration not stated)
4,< 0.5 µM,c1ccc(-c2csc3ncnc(N4CCC(COCCN5CC6CC5CO6)CC4)c23)cc1 (configuration not stated)
5,< 0.5 µM,F[C@@H]1CCN(CCOCC2C3CN(c4ncnc5scc(-c6ccccc6)c45)CC23)C1 (some centres not stated)
6,< 0.5 µM,NC(=O)[C@@H]1CCCN1CCOCC1C2CN(c3ncnc4scc(-c5ccccc5)c34)CC12 (some centres not stated)
7,< 0.5 µM,F[C@H]1CCN(CCOCC2CCN(c3ncnc4scc(-c5ccccc5)c34)CC2)C1
8,< 0.5 µM,CN(C)CCCOCC1CCN(c2ncnc3scc(-c4ccccc4)c23)CC1
9,< 0.5 µM,c1ccc(-c2csc3ncnc(N4CCC(COCCN5CCOCC5)CC4)c23)cc1

# — ChEMBL document CHEMBL3727349, “Thieno- and furo - pyrimidines and pyridines, useful as potassium channel inhibitors” (2013)
